Test results from patent US20100168218A1 (priority 2005, published 2010).
Where two headings read alike, the source gives them in different places.

What was measured:
[1] = systemic FAO inhibition, rodents; cited from earlier work
[2] = test system: MCF7 human breast cancer cells; assay: Fatty acid oxidation: oxidation of [14C]palmitate to acid soluble products; assay type: cell-based
From the text: By “FAO-stimulator,” we mean a compound which stimulates FAO as measured by oxidation of [^14C]palmitate to acid soluble products in MCF7 human breast cancer cells as described by Watkins, et al., “Peroxisomal fatty acid beta-oxidation in HepG2 cells,” Arch Biochem Biophys, 289: 329-336 (1991). A compound whose Vmax is at least 125% of vehicle control is defined as an FAO stimulator.

CPT-1 = CPT-1 activity in digitonin permeabilized cells; assay type: cell-based
[3] = Weight loss, food intake and indirect calorimetry in lean female Balb/C mice, 60 mg/kg; assay type: in vivo; details: for Metabolic Mechanism (indirect calorimetry): RER / Metabolic Mechanism (indirect calorimetry): VO2: compared to pair-fed animals; for % Maximum Reduction in Food Intake: day 1; for % Maximum Reduction in Food Intake / % Max. Wt Loss: 60 mg/kg
Procedure: Compounds 4 and 5 were administered to pair-fed mice, and various biological properties were tested for. The results are summarized below:
(§1) In contrast, it stimulated FAO by 150% of control at 8.4 μg/ml (28 μM) and CPT-1 activity by 150% of control at 20 μg/ml (˜60 μM). In lean female Balb/C mice, a single ip dose of 60 mg/kg caused nearly 8% weight loss within 24 hours along with a 68% reduction in food intake. […] Compound 5, with a different chemical structure, has similar biological characteristics to Compound 4.

human FAS = human FAS (Homo sapiens, UniProt P49327); assay: FAS inhibition assay (standard and slow-binding); assay type: biochemical
Procedure: as §1

[4] = Oral 100 mg/kg in diet-induced obese mice vs pair-fed and control animals (FIG. 3); assay type: in vivo
Procedure: In this experiment, compound 4 was administered orally at 100 mg/kg, in 35 μl DMSO to diet-induced obese mice, 5 animals per group.

[5] = test system: FAO in the ventrolateral hypothalamus (VLH); details: cited from earlier work
[6] = test system: carnitine palmitoyltransferase-1 (CPT-1); details: Thupari et al.; cited from earlier work
[7] = C75 administration, separate studies; cited from earlier work
[8] = portal vein infusion, 18 h chow deprived rats; cited from earlier work
[9] = concentration that yields a 50% increase in fatty acid oxidation over controls, linear regression analysis, read-out: FAO SC150
[10] = single ip dose of 60 mg/kg, within 24 hours, lean female Balb/C mice
[11] = slow binder requires preincubation at 37° C. prior to FAS assay, read-out: FAS Inhibition IC50

Sequence of human FAS (P49327 whole entry): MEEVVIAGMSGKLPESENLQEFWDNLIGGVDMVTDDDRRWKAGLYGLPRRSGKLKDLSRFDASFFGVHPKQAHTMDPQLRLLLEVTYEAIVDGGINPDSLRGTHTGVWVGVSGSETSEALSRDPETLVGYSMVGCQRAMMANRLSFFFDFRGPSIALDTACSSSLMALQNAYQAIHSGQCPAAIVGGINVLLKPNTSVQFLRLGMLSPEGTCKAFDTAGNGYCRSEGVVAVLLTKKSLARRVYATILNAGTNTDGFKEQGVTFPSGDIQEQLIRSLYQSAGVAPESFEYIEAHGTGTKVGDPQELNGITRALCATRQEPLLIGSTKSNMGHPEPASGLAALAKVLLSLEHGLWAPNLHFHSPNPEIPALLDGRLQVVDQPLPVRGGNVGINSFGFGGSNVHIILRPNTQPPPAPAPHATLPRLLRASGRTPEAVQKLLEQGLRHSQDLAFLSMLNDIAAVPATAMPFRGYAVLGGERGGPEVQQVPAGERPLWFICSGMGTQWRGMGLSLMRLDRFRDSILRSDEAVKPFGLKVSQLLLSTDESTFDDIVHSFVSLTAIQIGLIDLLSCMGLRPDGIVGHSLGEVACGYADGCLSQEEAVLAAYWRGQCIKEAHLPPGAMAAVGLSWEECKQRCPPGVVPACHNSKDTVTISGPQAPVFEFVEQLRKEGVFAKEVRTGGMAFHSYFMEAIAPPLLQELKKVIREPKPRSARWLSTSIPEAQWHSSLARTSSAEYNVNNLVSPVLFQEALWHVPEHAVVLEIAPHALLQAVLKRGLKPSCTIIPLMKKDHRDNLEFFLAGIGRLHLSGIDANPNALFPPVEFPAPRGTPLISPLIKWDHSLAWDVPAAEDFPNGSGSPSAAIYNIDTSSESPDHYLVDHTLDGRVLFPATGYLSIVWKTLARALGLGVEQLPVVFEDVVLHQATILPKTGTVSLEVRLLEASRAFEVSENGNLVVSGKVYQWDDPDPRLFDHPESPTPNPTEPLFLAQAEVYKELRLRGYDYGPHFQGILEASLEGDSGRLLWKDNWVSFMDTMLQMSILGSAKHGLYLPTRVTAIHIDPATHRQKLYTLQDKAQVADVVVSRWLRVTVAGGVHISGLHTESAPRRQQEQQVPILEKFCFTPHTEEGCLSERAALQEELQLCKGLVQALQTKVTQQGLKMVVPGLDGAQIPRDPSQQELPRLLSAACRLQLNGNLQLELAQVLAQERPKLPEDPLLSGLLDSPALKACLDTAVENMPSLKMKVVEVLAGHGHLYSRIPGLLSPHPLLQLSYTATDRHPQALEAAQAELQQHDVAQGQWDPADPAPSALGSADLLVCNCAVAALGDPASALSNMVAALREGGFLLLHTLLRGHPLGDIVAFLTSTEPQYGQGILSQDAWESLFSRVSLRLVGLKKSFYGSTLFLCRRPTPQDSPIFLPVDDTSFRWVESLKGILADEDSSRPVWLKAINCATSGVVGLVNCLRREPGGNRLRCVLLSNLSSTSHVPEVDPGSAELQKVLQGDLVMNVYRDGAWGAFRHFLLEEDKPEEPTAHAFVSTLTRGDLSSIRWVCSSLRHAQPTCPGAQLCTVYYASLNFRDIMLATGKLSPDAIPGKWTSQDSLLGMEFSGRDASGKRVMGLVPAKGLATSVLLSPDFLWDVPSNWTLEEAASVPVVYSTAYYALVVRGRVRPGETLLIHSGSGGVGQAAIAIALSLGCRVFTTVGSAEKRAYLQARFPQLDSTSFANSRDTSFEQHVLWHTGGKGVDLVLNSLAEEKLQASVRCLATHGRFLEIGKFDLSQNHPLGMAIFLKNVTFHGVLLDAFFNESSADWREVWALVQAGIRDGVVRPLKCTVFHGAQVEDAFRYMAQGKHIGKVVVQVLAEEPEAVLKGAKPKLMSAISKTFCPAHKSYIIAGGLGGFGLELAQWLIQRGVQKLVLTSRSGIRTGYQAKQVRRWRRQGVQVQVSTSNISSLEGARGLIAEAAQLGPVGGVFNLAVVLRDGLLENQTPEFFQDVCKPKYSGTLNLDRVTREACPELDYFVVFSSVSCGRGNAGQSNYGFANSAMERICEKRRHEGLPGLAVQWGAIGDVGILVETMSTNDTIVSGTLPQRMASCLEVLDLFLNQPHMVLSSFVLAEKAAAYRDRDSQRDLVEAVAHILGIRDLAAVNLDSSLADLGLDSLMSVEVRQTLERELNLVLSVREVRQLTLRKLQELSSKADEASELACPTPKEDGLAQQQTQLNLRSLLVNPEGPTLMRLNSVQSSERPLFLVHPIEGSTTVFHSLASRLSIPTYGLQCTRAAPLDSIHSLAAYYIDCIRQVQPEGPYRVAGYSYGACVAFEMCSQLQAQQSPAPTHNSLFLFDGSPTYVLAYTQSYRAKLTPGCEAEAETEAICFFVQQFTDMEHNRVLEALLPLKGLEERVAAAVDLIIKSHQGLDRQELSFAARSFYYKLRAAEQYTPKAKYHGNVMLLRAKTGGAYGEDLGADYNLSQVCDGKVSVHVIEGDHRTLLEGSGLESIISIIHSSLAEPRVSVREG

For `O=C(O)CS` [mercaptoacetate], the feeding [1] is given as “Increased feeding”.
For `C=CCC1(CC=C)C(=O)S[C@](C)(CCCCCCCC)C1=O` [Compound 4], the EC50 [2, 9] was 8.4 µg/mL, the EC50 ([2]; molar equivalent of 8.4 μg/ml, read-out: concentration stimulating FAO by 150% of control) was 28 µM and the “CPT-1 Activity %” value (CPT-1; % of control at concentration for maximal CPT-1 activity, digitonin permeabilized cells) was 150%. The “concentration giving CPT-1 activity 150% of control” value (CPT-1; molar equivalent of 20 μg/ml) was about 60 µM, the “concentration for maximal CPT-1 activity” value (CPT-1; number in parenthesis, digitonin permeabilized cells) was 20 µg/mL and the “Metabolic Mechanism (indirect calorimetry): RER” value (shortened to “Metabolic Mechanism … RER”) [3] was “↓RER p = 0.0057”. The “Metabolic Mechanism (indirect calorimetry): VO2” value (shortened to “Metabolic Mechanism … VO2”) [3] was “↑VO2”, the “Metabolic Mechanism … RER” value ([3]; listed as compound 4) was “reducing RER” and the “Metabolic Mechanism … VO2” value ([3]; listed as compound 4) was “increased VO2 compared to pair-fed animals”. For the same compound, the “% Maximum Reduction in Food Intake” value ([3]; lean female Balb/C mice) was 68% (day 1), the “% Max. Wt Loss” value ([3]; lean female Balb/C mice) was 7.9% and the “reduction in food intake” value [3, 10] was 68%. It also gave a weight loss [3, 10] of about 8%, an IC50 (human FAS; [11]) of over 77.5 µM and an IC50 (human FAS; standard and slow-binding assays, read-out: human FAS inhibition: no inhibition at concentrations up to) of over 310 µM. For the same compound, the “RER vs pair-fed group (FIG. 3D)” value ([4]; oral 100 mg/kg) was “significantly reduced compared to the pair-fed group on days 1, 3, and 4”, the “VO2 by indirect calorimetry vs pair-fed animals (FIG. 3C)” value ([4]; oral 100 mg/kg) was “maintained their VO2 compared to pair-fed animals on the first two days following treatment with a significant increase by day 3” and the “food intake vs control animals (FIG. 3B)” value ([4]; oral 100 mg/kg) was “ate significantly less food than control animals on the two days following treatment”. The “weight loss vs pair-fed animals (FIG. 3A)” value ([4]; oral 100 mg/kg in DMSO) was “lost more weight and maintained the weight loss longer than the pair-fed animals”.
In the case of `C=CCCC(=O)O` [Compound 4-PA, 4-pentanoic acid], the “weight or carcass composition” value ([5]; after 2 weeks of central FAO inhibition, rats) is listed as “no significant changes in weight or carcass composition” and the “reduction of FAO in the VLH” value ([5]; infusion for 14 days into the VLH of rats) is listed as 37%.
For `C[N+](C)(C)C[C@H](O)CC(=O)[O-]` [L-carnitine], the “food intake or animal weight” value ([5]; infusion into the VLH of rats) is given as “did not affect food intake or animal weight” and the “increase of FAO in the VLH over control levels” value ([5]; infusion into the VLH of rats) is given as 28%.
For `CCCCCCCCCCCCCCC1(C(=O)OC)CO1` (stereo not drawn) [methyl palmoxirate], the feeding [1] is given as “Increased feeding”.
In the case of `C=C1C(=O)O[C@@H](CCCCCCCC)[C@@H]1C(=O)O` (relative stereo) [Compound C75, trans-tetrahydro-3-methylene-2-oxo-5-n-octyl-4-furancarboxylic], the CPT-1 activity [6] is listed as “stimulates carnitine palmitoyltransferase-1 (CPT-1) activity”, the energy expenditure [7] is listed as “increases energy expenditure” and the food intake [7] is listed as “reducing food intake”.
With `CCCCC1OC(=O)C(=O)C1C(=O)OCC` (stereo not drawn) [Compound 5] the EC50 [2, 9] was 9 µg/mL, the “Metabolic Mechanism … RER” value [3] was “↓RER p = 0.01” and the “Metabolic Mechanism … VO2” value [3] was “↑VO2”. The “% Maximum Reduction in Food Intake” value ([3]; lean female Balb/C mice) was 50% (day 1), the “% Max. Wt Loss” value ([3]; lean female Balb/C mice) was 12.3% and the IC50 (human FAS; [11]) was over 110 µM.
For `CCCCCCCC(=O)O` [caprylic acid], the “FAO as measured by plasma β-hydroxybutyrate” value [8] is listed as “increased FAO” and the “reduction of the size of the first dark phase meal” value [8] is listed as 38%.
